Measurements published in paper PMC9181982, “Biphenyl Ether Analogs Containing Pomalidomide as Small-Molecule Inhibitors of the Programmed Cell Death-1/Programmed Cell Death-Ligand 1 Interaction” (Molecules, 2022).
“Also recorded” adds a separate entry of the source.

Tested on: PD-1/PD-L1 blockade, Jurkat effector cells / CHO/TCRAct/PD-L1 cells
Test: Immune checkpoint blockade (ICB) assay (Promega): Jurkat ECs co-cultured with CHO/TCRAct/PD-L1 cells, NFAT luciferase readout
Type: cell-based, human
Details: for Activation of Jurkat ECs compared with BMS-1166: 5 µM, p < 0.001 vs BMS-1166; for Activation of Jurkat ECs in the ICB assay: 6 h co-culture, fold induction vs control; for Promega Assay (active / not active): cell-based PD-1/PD-L1 blockade bioassay
Description: In order to explore the bioactivity of the synthesized compounds, a well-recognized immune checkpoint blockade (ICB) assay was performed. In the assay, artificial T cells, the Jurkat effector cells (Jurkat ECs), i.e., the Jurkat T cells overexpressing PD-1 and luciferase-coding gene under the control of the TCR-inducible NFAT response element, are contacted with artificial antigen-presenting CHO/TCRAct/PD-L1 cells, as illustrated in [31]. The latter is the CHO cells equipped with the TCR activator molecule, which delivers activation of Jurkat ECs, and also the PD-L1 protein, which provides a negative signal towards the activation of Jurkat ECs. Upon the blockade of the PD-1/PD-L1 interaction, activation of Jurkat ECs is increased, as we have shown before for several classes of therapeutic antibodies and small molecules.
The human PD-L1-expressing CHO-K1 cells overexpressing TCR activator (CHO/TCRAct/PD-L1) cells and Jurkat ECs T cells overexpressing PD-1 and carrying a luciferase reporter gene under the control of the Nuclear Factor of Activated T cells Response Element (NFAT-RE) were obtained from Promega and cultured in an RPMI-1640 medium (Biowest, Nuaillé, France) supplemented with 10% fetal bovine serum (FBS, Biowest, Nuaillé, France) and […] L-glutamine (Biowest, Nuaillé, France). G418 (250 µg/mL, InvivoGen, San Diego, CA, USA) and Hygromycin B Gold (50 µg/mL, InvivoGen, San Diego, CA, USA) were also added to the culture medium as selection antibiotics. CAKI 2, LNCap, PC-3, and MDA-MB-231 cells were purchased from the European Collection of Authenticated Cell Cultures (ECACC) and cultured according to the provided protocol.
For the analysis of biological activity of the analyzed compounds, an immune checkpoint blockade (ICB) assay was performed. For this, the culture of Jurkat effector cells (Jurkat-ECs) and […] was carried out. The assay was performed according to the protocol described in our previous works. All the experiments were performed three times as independent experiments.
Figure 2 Bioactivity of the indicated compounds. (A,B) The activity was monitored with a cell-based immune checkpoint blockade (ICB) assay. Jurkat ECs were contacted with pre-seeded CHO/TCRAct/PD-L1 cells in the presence of the indicated concentrations of the compounds (A) or durvalumab (B) as a positive control. The cells were co-cultured for 6 h and the luminescence signal was measured following the addition of the Bio-Glo substrate. The graphs show fold induction calculated versus either DMSO-treated (for small molecules) or untreated (for durvalumab) control (ctrl) cells. The results are mean ± SD from three independent experiments. […] (C) Analysis of the expression of PD-L1 in four human cancer cell lines compared to PD-L1-overexpressing CHO/TCRAct/PD-L1 cells. (D) Analysis of the expression of PD-L1 in MDA-MB-231 cells treated with either 4 or 5 compounds for 6 or 24 h.

Compound | Activation of Jurkat ECs compared with BMS-1166 | Activation of Jurkat ECs in the ICB assay | Promega Assay (active / not active)
COc1nc(OCc2cccc(-c3ccccc3)c2C)ccc1CNCC1CCN(CC(=O)Nc2cccc3c2C(=O)N(C2CCC(=O)NC2=O)C3=O)CC1 (stereo not drawn) [compound 4, N-(2-(2,6-dioxopiperidin-3-yl)-1,3-dioxoisoindolin-4-yl)-2-(4-((((2-methoxy-6-((2-methyl-[1,1′-biphenyl]-3-yl)methoxy)pyridin-3-yl)methyl)amino)methyl)piperidin-1-yl)acetamide] | significantly higher levels of the activation of Jurkat ECs | able to increase the activation of Jurkat ECs; also recorded: significantly restore the repressed immunity | Active
COc1nc(OCc2cccc(-c3ccccc3)c2C)ccc1CNCCCNc1cccc2c1C(=O)N(C1CCC(=O)NC1=O)C2=O (stereo not drawn) [compound 5, 2-(2,6-dioxopiperidin-3-yl)-4-((3-(((2-methoxy-6-((2-methyl-[1,1′-biphenyl]-3-yl)methoxy)pyridin-3-yl)methyl)amino)propyl)amino)isoindoline-1,3-dione] | significantly higher levels of the activation of Jurkat ECs | able to increase the activation of Jurkat ECs; also recorded: significantly restore the repressed immunity | Active
